From patent US20220000841A1, “INHIBITORS OF METALLO-BETA-LACTAMASES” (CENTRE NATIONAL DE LA RECHERCHE SCIENTIFIQUE, priority 2018, published 2022) come the findings set out here.

A word on the pKi: it is the negative decadic logarithm of the Ki, by convention in mol/L. In general, melting point refers to the temperature of the solid-liquid transition.

One data set has as its target VIM-1 (Pseudomonas aeruginosa, UniProt A0A0F7KYQ8). Description: Enzymatic assay for determination of inhibition constants, reporter substrate method, purified VIM-1.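 As to all read-outs here: initial hydrolysis rates of a reporter β-lactam (imipenem, meropenem, cefotaxime or nitrocefin) followed by absorbance change, purified enzyme at 1–70 nM in 50 mM HEPES pH 7.5.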 The class given is biochemical. The settings on record: for pKi: isolated MBL, competitive inhibition model.
For another data set, the target named is VIM-2 (Escherichia coli, UniProt Q5U7L7). Description: Enzymatic assay for determination of inhibition constants, reporter substrate method, purified VIM-2.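 Also: purified VIM-2 hydrolysing a reporter substrate (imipenem, meropenem, cefotaxime or nitrocefin), reaction rate read as absorbance change, HEPES 50 mM at pH 7.5.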 The class given is biochemical.
A further data set deals with NDM-1 (Klebsiella pneumoniae, UniProt C7C422). Description: Enzymatic assay for determination of inhibition constants, reporter substrate method, purified NDM-1.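 As to all read-outs here: purified enzyme activity followed as absorbance change from reporter substrate hydrolysis on a UV-Vis spectrophotometer or plate reader, 50 mM HEPES pH 7.5.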 It counts as biochemical. As to conditions: for pKi: isolated MBL, competitive inhibition model.
A further data set concerns the target IMP-1 (Serratia marcescens, UniProt P52699). Description: Enzymatic assay for determination of inhibition constants, reporter substrate method, purified IMP-1.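 As to all read-outs here: purified IMP-1 (1-70 nM) hydrolysing a reporter substrate, initial rates followed as absorbance change at 260, 300 or 482 nm in 50 mM HEPES pH 7.5.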 The settings on record: for pKi: isolated MBL, competitive inhibition model; for % inhibition IMP-1: at 200 μM (maximal tested concentration). It counts as biochemical.
The next data set deals with VIM-4 (Pseudomonas aeruginosa, UniProt Q8KRJ3). Description: Enzymatic assay for determination of inhibition constants, reporter substrate method, purified VIM-4.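 Also: purified VIM-4 (1-70 nM) in 50 mM HEPES pH 7.5, reporter substrate hydrolysis rate tracked by absorbance change (nitrocefin 482 nm, imipenem or meropenem 300 nm, cefotaxime 260 nm).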 The class given is biochemical. As to conditions: at 100 μM (maximal tested concentration).
Where [1] appears, read: isolated MBL, competitive inhibition model, read-out: Ki VIM-2.
The mark [2] stands for this setting: as listed in Table 2, read-out: Ki on VIM-2.
Where [3] appears, read: at 100 μM (maximal tested concentration).
Where [4] appears, read: at 200 μM (maximal tested concentration).

pKi: −log10 of the molar value. Like-named read-outs stand apart in the source and are kept apart here. Where only a bound is given, the exact number is not on record here.

Sequence of IMP-1 (P52699 19-246, looked up, species assumed): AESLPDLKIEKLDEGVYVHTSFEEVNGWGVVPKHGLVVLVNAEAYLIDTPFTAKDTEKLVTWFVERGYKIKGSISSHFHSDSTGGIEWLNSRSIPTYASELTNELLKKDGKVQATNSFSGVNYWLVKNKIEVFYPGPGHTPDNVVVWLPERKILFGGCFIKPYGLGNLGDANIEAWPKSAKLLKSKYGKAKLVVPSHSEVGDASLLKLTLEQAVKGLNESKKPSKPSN
Sequence of NDM-1 (C7C422 29-270, looked up, species assumed): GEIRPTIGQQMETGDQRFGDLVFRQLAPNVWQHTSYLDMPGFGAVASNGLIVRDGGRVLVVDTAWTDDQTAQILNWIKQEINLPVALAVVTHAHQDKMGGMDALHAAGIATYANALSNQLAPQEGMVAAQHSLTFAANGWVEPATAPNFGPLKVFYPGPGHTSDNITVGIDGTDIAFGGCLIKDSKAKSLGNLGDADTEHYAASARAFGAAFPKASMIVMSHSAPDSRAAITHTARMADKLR
Protocol for IMP-1: (§1) The reaction rate was measured as the variation of absorbance observed upon substrate hydrolysis in a UV-Vis spectrophotometer or microplate reader at a wavelength of 300 nm (imipenem, meropenem), 260 nm (cefotaxime) or 482 nm (nitrocefin) in 50 mM HEPES buffer (pH 7.5) and in the presence of a purified MBL enzyme (such as VIM-1, VIM-2, VIM-4, NDM-1 and IMP-1, at a final concentration ranging 1-70 nM).
(§2) The inhibition constants (Ki) were determined on the basis of a model of competitive inhibition by analyzing the dependence of the ratio v0/vi (v0, hydrolysis velocity in the absence of inhibitor; vi, hydrolysis velocity in the presence of inhibitor) as a function of [I] as already described [Docquier J. D., Lamotte-Brasseur J., Galleni M., Amicosante G., Frère J. M., Rossolini G. M. (2003) J. Antimicrob. […] The slope of the plot of v0/vi vs [I], which corresponds to Km^S/(Km^S+[S])Ki (where Km^S is the Km value of the reporter substrate and [S] its concentration in the reaction mixture) and allowed the calculation of the Ki value. Alternatively, a Dixon plot analysis was carried out, by measuring the initial hydrolysis rates in the presence of variable concentrations of inhibitor and substrate.
Protocol for NDM-1: as §1, §2
Protocol for VIM-1: as §1, §2
Protocol for VIM-2: as §1, §2
Protocol for VIM-4: as §1, §2

`Oc1ccc(CCn2c(-c3ccccc3-c3ccccc3)n[nH]c2=S)c(O)c1` [Compound 43, 5-(2-Biphenyl)-4-[2-(2,4-dihydroxyphenyl)ethyl]-1,2,4-triazole-3-thione]: the negative logarithm of the Ki (pKi) on VIM-1 is less than 4.00; on VIM-2 (setting [1]), less than 4.00; on NDM-1, 4.00 to 5.00; on IMP-1, less than 4.00.

The compound `CCCCCCn1c(-c2ccccc2)n[nH]c1=S` [Compound 26, 4-hexyl-3-phenyl-4,5-dihydro-1H-1,2,4-triazole-5-thione] came in with a melting point of 98 to 99 °C. In addition, the negative-log Ki (pKi) at VIM-2 (setting [1]) was 5.00 to 6.00. The “% inhibition VIM-4” value on VIM-4 came out at 85% at 100 μM. Moreover, at NDM-1, the pKi was less than 4.00. The same compound had a pKi at IMP-1 of less than 4.00.

For the compound `Cn1cccc1-c1n[nH]c(=S)n1CCCC(=O)O` [Compound 48, 4-[3-(1-Methyl-1H-pyrrol-2-yl)-5-thioxo-1,4-dihydro-1,2,4-triazol-4-yl]butyric acid], the negative-log Ki (pKi) on VIM-2 (setting [1]), at NDM-1 and at IMP-1 was less than 4.00 throughout. Further, the “% inhibition VIM-4” value at VIM-4 amounted to 75% at 100 μM.

Turning to `O=C(O)c1ccccc1CCn1c(-c2ccc(OCc3ccccc3)cc2)n[nH]c1=S` [Compound 40, 5-(4-Benzyloxyphenyl)-4-[2-(2-carboxyphenyl)ethyl]-1,2,4-triazole-3-thione], the pKi at VIM-1 is less than 4.00; on VIM-2 (setting [1]), greater than 6.00; on NDM-1, less than 4.00; on IMP-1, less than 4.00.

As to `O=C(O)c1ccccc1CNn1c(-c2ccc3ccccc3c2)n[nH]c1=S` [Compound 16, 2-({[3-(naphthalen-2-yl)-5-sulfanylidene-4,5-dihydro-1H-1,2,4-triazol-4-yl]amino}methyl)benzoic acid], the melting point is 213 to 214 °C. Moreover, at VIM-1, the pKi was less than 4.00. For the same compound, the pKi at VIM-2 (setting [1]) is 5.00 to 6.00. Also, the pKi at NDM-1 is less than 4.00. The negative logarithm of the Ki (pKi) at IMP-1 is less than 4.00.

As for `COc1ccc(O)c(-c2n[nH]c(=S)n2Cc2ccccc2)c1` [Compound 7, 4-benzyl-3-(2-hydroxy-5-methoxyphenyl)-4,5-dihydro-1H-1,2,4-triazole-5-thione], the negative-log Ki (pKi) is greater than 6.00 at VIM-1, 5.00 to 6.00 at VIM-2 (setting [1]), less than 4.00 on NDM-1 and less than 4.00 at IMP-1.

For `O=C(O)c1ccccc1CCn1c(-c2ccc3ccccc3n2)n[nH]c1=S` [Compound 36, 2-{2-[3-(Quinolin-2-yl)-5-sulfanylidene-4,5-dihydro-1H-1,2,4-triazol-4-yl]ethyl}benzoic acid], the pKi at VIM-2 (setting [1]), at NDM-1 and on IMP-1 was less than 4.00 in each case. Also, the “% inhibition VIM-4” value at VIM-4 stood at 85% at 100 μM.

For `O=C(O)c1ccccc1CNn1c(-c2ccccc2)n[nH]c1=S` [Compound 5, 2-{[(3-phenyl-5-sulfanylidene-4,5-dihydro-1H-1,2,4-triazol-4-yl)amino]methyl}benzoic acid], the negative logarithm of the Ki (pKi) is less than 4.00 on VIM-1; 5.00 to 6.00 at VIM-2 (setting [2]); 5.00 to 6.00 at VIM-2 (setting [1]); less than 4.00 on NDM-1; less than 4.00 on IMP-1.

As for `FC(F)(F)c1cc(SCCn2c(-c3ccccc3)n[nH]c2=S)c2ccccc2n1` [Compound 28, 3-phenyl-4-(2-{[2-(trifluoromethyl)quinolin-4-yl]sulfanyl}ethyl)-4,5-dihydro-1H-1,2,4-triazole-5-thione], the melting point was in the range of 184 to 185 °C. Also, at VIM-2 (setting [1]), the pKi was less than 4.00. On NDM-1, the pKi is 4.00 to 5.00. On IMP-1, this compound gave a pKi of less than 4.00.

Consider `O=C(O)CCCn1c(-c2cccc(-c3ccccc3)c2)n[nH]c1=S` [Compound 38, 5-(3-Biphenyl)-4-[3-carboxypropanyl]-1,2,4-triazole-3-thione], for which the pKi on VIM-1 is less than 4.00; on VIM-2 (setting [1]), greater than 6.00; on NDM-1 it was less than 4.00; at IMP-1, less than 4.00.

In turn, `O=C(O)c1ccccc1CCn1c(-c2ccccc2)n[nH]c1=S` [Compound 1, 2-[2-(3-phenyl-5-sulfanylidene-4,5-dihydro-1H-1,2,4-triazol-4-yl)ethyl]benzoic acid] came in with a melting point of 220 to 221 °C. Besides, the pKi on VIM-1 was less than 4.00. The pKi at VIM-2 (setting [2]) is greater than 6.00. For the same compound, the pKi on VIM-2 (setting [1]) was greater than 6.00. Besides, the negative-log Ki (pKi) on NDM-1 is less than 4.00. The pKi on IMP-1 was less than 4.00.

On to `S=c1[nH]nc(-c2ccccc2)n1CCCSc1ccccc1` [Compound 79, 5-Phenyl-4-[3-(phenylthio)propyl]-2,4-dihydro-1,2,4-triazole-3-thione], for which the “% inhibition VIM-1” value at VIM-1 (setting [3]) came to 82% at 100 μM. In addition, at VIM-2 (setting [3]), the “% inhibition VIM-2” value is given as 72% at 100 μM. For the same compound, the “% inhibition VIM-4” value on VIM-4 amounted to 71% at 100 μM. Also, the pKi on NDM-1 and at IMP-1 was less than 4.00 each time.

As to `O=C(O)CC(Cn1c(-c2ccccc2)n[nH]c1=S)c1ccccc1` (stereo not shown) [Compound 46, 3-Phenyl-4-(3-phenyl-5-thioxo-1,4-dihydro-1,2,4-triazol-4-yl)butyric acid], the pKi at VIM-1, on VIM-2 (setting [1]), at NDM-1 and at IMP-1 was less than 4.00 in each case.

On to `O=C(O)c1ccccc1CCn1c(-c2ccc[nH]2)n[nH]c1=S` [Compound 57, o-{2-[3-(1H-Pyrrol-2-yl)-5-thioxo-1,4-dihydro-1,2,4-triazol-4-yl]ethyl}benzoic acid], for which the “% inhibition VIM-2” value on VIM-2 (setting [4]) is reported as 80% at 200 μM. Also, at VIM-4, the “% inhibition VIM-4” value came to 65% at 100 μM. Further, on NDM-1 (setting [4]), the “% inhibition NDM-1” value stood at 60% at 200 μM. Besides, on IMP-1, the negative logarithm of the Ki (pKi) was less than 4.00.

As for `S=c1[nH]nc(-c2ccccc2)n1CCc1ccccc1` [Compound 11, 3-phenyl-4-(2-phenylethyl)-4,5-dihydro-1H-1,2,4-triazole-5-thione], on VIM-1 (setting [4]), the “% inhibition VIM-1” value worked out at 75% at 200 μM. Besides, the pKi at VIM-2 (setting [1]) was less than 4.00; at NDM-1, less than 4.00; at IMP-1, 5.00 to 6.00. For the same compound, the “% inhibition VIM-4” value at VIM-4 worked out at 75% at 100 μM.

For `Cc1nnsc1-c1n[nH]c(=S)n1CCc1ccccc1C(=O)O` [Compound 23, 2-{2-[3-(4-methyl-1,2,3-thiadiazol-5-yl)-5-sulfanylidene-4,5-dihydro-1H-1,2,4-triazol-4-yl]ethyl}benzoic acid], the melting point lay within 195 to 196 °C. Moreover, the negative-log Ki (pKi) at VIM-2 (setting [1]) is less than 4.00. Moreover, the negative-log Ki (pKi) on NDM-1 is less than 4.00. Also, at IMP-1, the “% inhibition IMP-1” value was determined as 95% at 200 μM.

`Oc1ccc(CCn2c(-c3ccccc3)n[nH]c2=S)cc1` [Compound 31, 4-[2-(4-hydroxyphenyl)ethyl]-3-phenyl-4,5-dihydro-1H-1,2,4-triazole-5-thione]: the negative-log Ki (pKi) on VIM-1 is 5.00 to 6.00; at VIM-2 (setting [1]) it was 5.00 to 6.00; at NDM-1 it was 4.00 to 5.00; on IMP-1, 4.00 to 5.00. Also, the “% inhibition VIM-4” value at VIM-4 came to 70% at 100 μM.

In the case of `[N-]=[N+]=NCCn1c(-c2ccccc2)n[nH]c1=S` [Compound 49, 4-(2-Azidoethyl)-3-phenyl-4,5-dihydro-1H-1,2,4-triazole-5-thione], the melting point is 108 to 109 °C. At VIM-2 (setting [1]), the negative-log Ki (pKi) is less than 4.00. For the same compound, the negative-log Ki (pKi) at NDM-1 is less than 4.00. In addition, the “% inhibition IMP-1” value on IMP-1 is on record as 90% at 200 μM.

As to `COc1ccc(O)c(-c2n[nH]c(=S)n2CCc2ccccc2)c1` [Compound 10, 3-(2-hydroxy-5-methoxyphenyl)-4-(2-phenylethyl)-4,5-dihydro-1H-1,2,4-triazole-5-thione], the pKi at VIM-1 was 5.00 to 6.00; on VIM-2 (setting [1]), 5.00 to 6.00; on NDM-1 it was 5.00 to 6.00; at IMP-1 it was 4.00 to 5.00.

`Cn1cccc1-c1n[nH]c(=S)n1CCc1ccccc1C(=O)O` [Compound 44]: the pKi at VIM-2 (setting [1]) was greater than 6.00; at NDM-1 it was less than 4.00; on IMP-1, less than 4.00. The “% inhibition VIM-4” value on VIM-4 was found to be 80% at 100 μM.

As to `O=C(O)CCCn1c(-c2ccccc2)n[nH]c1=S` [Compound 2, 4-(3-phenyl-5-sulfanylidene-4,5-dihydro-1H-1,2,4-triazol-4-yl)butanoic acid], the pKi on VIM-1 is less than 4.00; on VIM-2 (setting [2]), 5.00 to 6.00; at VIM-2 (setting [1]) it was 5.00 to 6.00; at NDM-1, less than 4.00; at IMP-1, less than 4.00.

In the case of `O=C(O)c1ccc(Cn2c(-c3ccccc3)n[nH]c2=S)cc1` [Compound 55, p-[(3-Phenyl-5-thioxo-1,4-dihydro-1,2,4-triazol-4-yl)methyl]benzoic acid], at VIM-2 (setting [4]), the “% inhibition VIM-2” value was found to be 80% at 200 μM. Also, the “% inhibition VIM-4” value at VIM-4 amounted to 80% at 100 μM. Also, the negative logarithm of the Ki (pKi) at NDM-1 and on IMP-1 was less than 4.00 throughout.

Consider `Oc1ccc(CCn2c(-c3ccccc3)n[nH]c2=S)c(O)c1` [Compound 41, 4-[2-(2,4-Dihydroxyphenyl)ethyl]-5-phenyl-1,2,4-triazole-3-thione], for which the pKi on VIM-1 was less than 4.00; on VIM-2 (setting [1]), less than 4.00; on NDM-1, 4.00 to 5.00; at IMP-1, 4.00 to 5.00.

For the compound `Cc1ccccc1-c1n[nH]c(=S)n1CCc1ccccc1` [Compound 6, 3-(2-methylphenyl)-4-(2-phenylethyl)-4,5-dihydro-1H-1,2,4-triazole-5-thione], the “% inhibition VIM-1” value at VIM-1 (setting [4]) is given as 60% at 200 μM. In addition, the “% inhibition VIM-2” value at VIM-2 (setting [4]) amounted to 60% at 200 μM. Further, the “% inhibition VIM-4” value at VIM-4 was determined as 50% at 100 μM. Also, at NDM-1, the pKi was less than 4.00. Also, the “% inhibition IMP-1” value at IMP-1 was found to be 80% at 200 μM.

For the compound `O=C(O)CSCCn1c(-c2ccccc2)n[nH]c1=S` [Compound 65, [2-(3-Phenyl-5-thioxo-1,4-dihydro-1,2,4-triazol-4-yl)ethylthio]acetic acid], the “% inhibition VIM-2” value at VIM-2 (setting [3]) was 90% at 100 μM. In addition, the negative-log Ki (pKi) on NDM-1 and at IMP-1 was less than 4.00 each time.
